Reference: US9610263B2, “Method of modulating membrane potential of a cell” (VERSITECH LIMITED, priority 2007, dated 2017)
Entries after “also recorded” stand apart in the source; their conditions may differ.

Columns and labels:
[1] = Membrane potential of valinomycin-polarized liposomes (safranin O); format: biochemical; conditions: KCl-loaded EYPC-liposomes in KCl/Na2SO4; external addition alone
Source text: The ability of Example 2 to modulate membrane potentials in polarized liposomes was investigated. […] This depolarization process induced by Example 2 may be attributed to the formation of chloride channels by Example 2 that mediate chloride ions flow out of the polarized liposomes to balance the electrostatic potential established by valinomycin.

[2] = tested on: Madin-Darby canine kidney (MDCK) cells; test: Membrane potential of living cells with bis-oxonol (DiBAC4(3)); format: cell-based
Source text: To determine the potential of Example 2 for application in biological and medicinal science, Example 2 was investigated for incorporating into the plasma membranes of living cells and, thereby, modulating their membrane potentials by increasing chloride permeability of the cell membranes. A potential-sensitive dye his-oxonal was used to measure the relative changes in membrane potential of the Madin-Darby canine kidney (MDCK) cells, a model for the renal distal tubule and collecting duct that secrete chloride ions. An increase in fluorescence of bis-oxonal indicated cell depolarization while a decrease indicated hyperpolarization. […] This depolarization effect could be ascribed to that the chloride equilibrium potential (ECl) was higher than the resting membrane potential in MDCK cells. Thus, the opening of chloride channels shifted the membrane potential towards the ECl.
In summary, FIG. 14A-E show the effects of adding different substances, including Example 2, on the membrane potential of Madin-Darby canine kidney (MDCK) cells. Membrane potentials of MDCK cells were monitored by the changes of emission intensity of the potential-sensitive dye bis-oxonol (DiBAC4(3)). The increase in the fluorescence intensity indicates depolarization. […] Each point in FIG. 14A-E represents the mean±s.e. (n=20-80 cells in 4-6 experiments).

[3] = tested on: mouse thoracic aortic rings; test: Vasorelaxation of aortic rings preconstricted by high-K solution (organ bath); conditions: aortic rings preconstricted by high-K (60 mM K+) solution, n=5, read-out: half-maximal relaxation value IC50
Source text: Example 52 was for investigating whether Example 2 could promote vasorelaxation during vasoconstriction induced by depolarization. Mouse thoracic aortic rings was mounted in an organ bath apparatus and measured their muscular activity.

Compound | melting point [°C] | also measured
CC(C)[C@@H]1NC(=O)[C@H](C)OC(=O)[C@@H](C(C)C)NC(=O)[C@@H](C(C)C)OC(=O)[C@H](C(C)C)NC(=O)[C@H](C)OC(=O)[C@@H](C(C)C)NC(=O)[C@@H](C(C)C)OC(=O)[C@H](C(C)C)NC(=O)[C@H](C)OC(=O)[C@@H](C(C)C)NC(=O)[C@@H](C(C)C)OC1=O [valinomycin] |  | membrane potential of liposomes [1]: polarized the liposome
CC(C)C[C@@H](ONC(=O)c1cccc(C(=O)NO[C@H](CC(C)C)C(=O)OC(C)(C)C)c1)C(=O)OC(C)(C)C [Example 1] | 57 to 59 | 
CC(C)CNC(=O)[C@@H](CO)ONC(=O)c1cccc(C(=O)NO[C@H](CO)C(=O)NCC(C)C)c1 [Example 36] | 174 to 176 | 
CCCCCCCCCCCCCCCCCCNC(=O)[C@@H](CC(C)C)ONC(=O)c1cccc(C(=O)NO[C@H](CC(C)C)C(=O)NCCCCCCCCCCCCCCCCCC)c1 [Example 5] | 88 to 90 | 
CC(C)CNC(=O)[C@H](CC(C)C)NC(=O)c1cccc(C(=O)N[C@@H](CC(C)C)C(=O)NCC(C)C)c1 [Example 8] | 240 to 242 | 
O=C(O)c1ccccc1Nc1ccccc1 [DPC, diphenylamine-2-carboxylate] |  | membrane potential (bis-oxonol fluorescence) ([2]; 1 mM added alone): hyperpolarization of the membrane potential; depolarization induced by low-chloride extracellular solution ([2]; 60 mM Cl- Ringer's solution in presence of 1 mM blocker): entirely inhibited the depolarization effect; also recorded: did not result in depolarization
CC(C)CNC(=O)[C@@H](Cc1ccccc1)ONC(=O)c1cccc(C(=O)NO[C@H](Cc2ccccc2)C(=O)NCC(C)C)c1 [Example 37] | 145 to 148 | 
CC(C)CNC(=O)[C@H](CC(C)C)OC(=O)c1cccc(C(=O)O[C@@H](CC(C)C)C(=O)NCC(C)C)c1 [Example 9] | 137 to 139 | 
CC(C)CNC(=O)[C@@H](CC(C)C)ONC(=O)c1cccc(C(=O)NO[C@H](CC(C)C)C(=O)NCC(C)C)n1 [Example 7] | 175 to 177 | 
CC(C)CNC(=O)[C@@H](CC(C)C)ONC(=O)c1ccccc1 [Example 6] | 130 to 132 | 
CC(C)CNC(=O)[C@@H](CC(C)C)ONC(=O)c1cccc(C(=O)NO[C@H](CC(C)C)C(=O)NCC(C)C)c1 [Example 2] |  | IC50 [3]: 8.42 ± 0.18 µM
